In patent publication US9138659B2, “Compositions, methods, and systems relating to controlled crystallization and/or nucleation of molecular species” (Massachusetts Institute of Technology, priority 2010, dated 2015):
Where “and” joins values, the source holds several entries; their conditions need not be identical. Equal entries are not always repeated. Entries after “also recorded” stand apart in the source; their conditions may differ. One block for each compound: values may come before it.

Legend:
[1] = ROY nucleation induction time with PEGMDA microgels in ethanol; format: physicochemical; details: for τ(O): ROY orange needle form; for τ(R): ROY red form; for τ(Y): ROY yellow form
Method: (§1) In each experiment, crystallization of pure forms of either Y (yellow prisms), R (red prisms) or ON (orange needles) were observed from ethanol solution stochastically (FIG. 30), and their frequencies of occurrence were calculated by conducting 50-150 experiments in each case (FIG. 31). Nucleation induction time data from bulk solution or with PEG130DA microgels were fitted with the stretched exponential model and the average induction time thus regressed represents an average of all forms (Table 10), since the frequencies of occurrence for R and ON were too low for separate statistical analysis. […] In the multi-exponential model, each exponential decay process may be better represented with a stretched exponential, however, a simple exponential suffices in this case and decent fit was obtained with R^2 very close to unity (Table 11).
Nucleation induction time statistics of ROY with or without the presence of PEGDA microgels were determined. For each type of samples, 50-100 experiments were performed to obtain the induction time statistics wherein P is the probability for observing no crystallization event within time t is estimated from the fraction of samples haven't crystallized at this time point. Either stretched exponential model or multi-exponential models were employed to fit the data (see Tables 10 and 11).
Induction time distribution data were fitted with stretched exponentials via nonlinear least square regression: P=exp[−(t/τ)^β], where P is the probability to observe no crystallization event within time t. τ is an average of induction times for all Y, R, ON forms.
Induction time distribution data were fitted with superposition of two or three exponentials via nonlinear least square regression. Two-exponential fit was employed for PEG200DA and PEG700DA samples: P=a·exp[−t/τ(Y)]+(1−a)·exp[−t/τ(R)], with τ(R) an average of forms R and O for the PEG700DA sample. Three-exponential fit was used for PEG400DA and PEG575DA samples: P=a·exp[−t/τ(Y)]+b·exp[−t/τ(R)]+(1−a−b)·exp[−t/τ(O)], where Y, R, and O represent the yellow, red and orange needle forms respectively. *τ, an average induction time of Form R and ON, given the lack of data points to distinguish the two.

[2] = Preferred orientation of ROY crystals on PEGMDA polymer films by XRD; format: physicochemical
Description: The ROY-polymer interactions were probed via preferred crystal orientations on flat PEGMDA films. From the bulk solution, ROY crystallized in Form Y predominantly. In comparison, PEGMDA films templated nucleation of R, as well as Y, which is consistent with the observations with microgels. […] To verify this observation, the contribution from each crystal facet was quantified and listed the prominent ones in Table 12. […] Polymers with M=130, 200 g/mol favor R (111) and R (220). As M increases, percentage of R decreases and Y increases to become the dominant polymorph on M=575, 700 g/mol, which is contact with the polymer via Y (020) and/or (040) facet.
XRD patterns of ROY crystallized from bulk solution and on PEGDA films under the substantially similar conditions were obtained. Additional peaks observed from crystals templated by polymer films but not from bulk crystals were observed. Reference patterns were calculated from CSD using POWD-12++.
Analysis on the XRD data is carried out by normalizing the measured peak intensities Ip^i with the reference peak intensities Ibulk^i from the bulk sample, following the formula
[formula] where ηi is the percentage of crystals in orientation i, and p is short for polymer. Percentages are highlighted as bold for dominant orientations in each case.

[3] = Partition coefficients of CBZ and ROY in PEGMDA microgels from ethanol solutions; format: physicochemical; details: for Partition coefficient κ (solute mass fraction in gel solution / bulk): ethanol solution
[4] = ROY polymorph frequency of occurrence; format: physicochemical; details: vs bulk crystallization
Method: as §1
In FIG. 31: Polymorph frequency of occurrence in 12 mg/ml ROY-ethanol solution with or without microgels of various mesh sizes (left) and at higher solution concentrations, C0 (right). Frequency of occurrence is calculated as the percentage of samples crystallized in a particular form within 1440 min out of the total number of samples. The analysis for 12 mg/ml solution is carried out previously. In summary, addition of PEGDA microgels accelerated crystallization of all three forms, Y, R and ON.

[5] = ROY nucleation induction time with PEGMDA microgels in ethanol; format: physicochemical; details: ROY Form R; without microgels
[6] = cited from earlier work
[7] = CBZ nucleation induction time and polymorphic outcome with PEGMDA microgels in ethanol; format: physicochemical
Description: Results and Discussion: Monodispersed cubelike PEGMDA microgels (FIG. 27 left), with M ranging from 130 to 700 g/mol were synthesized by Stop-Flow Lithography, The mesh sizes vary from 0.7 to 1.5 nm in solvent ethanol (Table 9), estimated from equilibrium swelling by the Flory-Rehner theory. The accuracy of this method for obtaining mesh sizes has been confirmed with Small-Angle Neutron Scattering in a different solvent. The microgels were utilized for controlling polymorph crystallization by suspending ˜10 μg of microgels per 1 ml solution by stiffing. Such a low microgel concentration may be sufficient to effect drastic change in the crystallization behavior (discussed later), underscoring the effectiveness of polymer microgels in controlling crystallization. In all crystallization experiments, supersaturation of the solution was generated by cooling instead of solvent evaporation, despite its popularity in numerous polymorph studies, to yield better control over the crystallization process.
Occasionally, pure Form III was also obtained from bulk experiments. […] However, such polymorph selectivity could not be attained using microgels with M<400 g/mol (˜100 trials) where the polymorphic outcome was quite similar to that of the bulk samples (Table 9), only with a decreased mass fraction of Form I in the mixture obtained (FIG. 28 discussed later) and a lower frequency of occurrence of Form III.
Average mesh size ξ was estimated from equilibrium swelling experiments in solvent ethanol. Induction time distribution data were fitted with stretched exponentials via nonlinear least square regression: P=exp[−(t/τ)^β], where P is the probability to observe no crystallization event within time t.
Induction time was measured by monitoring IR transmission signal passing through a solution in controlled temperature environment and stirring condition. Once nucleation occurred, the solution became turbid in seconds indicated by a sharp drop of IR signal, due to secondary nucleation and rapid crystal growth. The statistical nature of nucleation necessitated a large number of experiments (50-100) for obtaining the distribution of induction times, from which the average induction time τ was regressed with a stretched-exponential model, P(t)=exp[−(t/τ)^β], where P is the probability to observe no crystallization event within time t. In brief, the stretched-exponential model modified the single exponential model derived from the Poisson statistics, P(t)=exp (−t/τ) by adding an exponent β to the dimensionless induction time t/τ to capture the spread in characteristic time scales caused by a distribution of nucleation active sites present in the system.

[8] = PEGMDA polymer film M 130 g/mol
[9] = PEGMDA polymer film M 200 g/mol
[10] = PEGMDA polymer film M 400 g/mol
[11] = PEGMDA polymer film M 575 g/mol
[12] = PEGMDA polymer film M 700 g/mol
[13] = CBZ, Bulk ethanol solution, S=1.63, T=25° C
[14] = CBZ, PEGMDA microgels M 130 g/mol
[15] = CBZ, PEGMDA microgels M 200 g/mol

- time within which all nucleation of Y occurred ([1]; ROY Form Y, PEG200DA microgels): ≤ 100 min
- τ(O) ([1]; PEG400DA microgels): 3300 min
- τ(O) ([1]; PEG575DA microgels): 2900 min
- τ(R) ([1]; PEG200DA microgels): 9000 ± 6000 min
- τ(R) ([1]; PEG400DA microgels): 1600 ± 400 min
- τ(R) ([1]; PEG575DA microgels): 200 min and 200 ± 20 min
- τ(Y) ([1]; PEG200DA microgels): 26.0 ± 1.5 min
- τ(Y) ([1]; PEG400DA microgels): 22.0 ± 0.6 min
- τ(Y) ([1]; PEG575DA microgels): 10.0 ± 0.8 min
- τ(Y) ([1]; PEG700DA microgels): 12.0 ± 1.2 min
- average nucleation induction time τ (average of Y, R, ON forms) ([1]; ROY, Bulk ethanol solution): 10000 ± 2000 min
- average nucleation induction time τ (average of Y, R, ON forms) ([1]; ROY, PEG130DA microgels): 4000 ± 750 min
- τ(R), an average induction time of Form R and ON ([1]; ROY, PEG700DA microgels): 2600 ± 400 min
- Percentage of ROY crystals in orientation R (111) [2, 8]: 38.0%
- Percentage of ROY crystals in orientation R (220) [2, 8]: 46.8%
- Percentage of ROY crystals in orientation Y (020) [2, 8]: 7.5%
- Percentage of ROY crystals in orientation Y (040) [2, 8]: 3.4%
- Percentage of ROY crystals in orientation R (111) [2, 9]: 36.2%
- Percentage of ROY crystals in orientation R (220) [2, 9]: 53.6%
- Percentage of ROY crystals in orientation Y (020) [2, 9]: 3.5%
- Percentage of ROY crystals in orientation Y (040) [2, 9]: 1.6%
- Percentage of ROY crystals in orientation R (111) [2, 10]: 28.8%
- Percentage of ROY crystals in orientation R (220) [2, 10]: 24.9%
- Percentage of ROY crystals in orientation Y (020) [2, 10]: 23.6%
- Percentage of ROY crystals in orientation Y (040) [2, 10]: 9.9%
- Percentage of ROY crystals in orientation R (111) [2, 11]: 12.9%
- Percentage of ROY crystals in orientation R (220) [2, 11]: 20.0%
- Percentage of ROY crystals in orientation Y (020) [2, 11]: 26.9%
- Percentage of ROY crystals in orientation Y (040) [2, 11]: 13.1%
- Percentage of ROY crystals in orientation R (111) [2, 12]: 9.8%
- Percentage of ROY crystals in orientation R (220) [2, 12]: 14.4%
- Percentage of ROY crystals in orientation Y (020) [2, 12]: 50.9%
- Percentage of ROY crystals in orientation Y (040) [2, 12]: 16.9%
- ROY concentration in the gel phase relative to bulk solution ([3]; PEGMDA gels, ethanol): 6-11 times
- Partition coefficient κ (solute mass fraction in gel solution / bulk) ([3]; PEGMDA microgels M 130 g/mol): 6.3 ± 0.2
- Partition coefficient κ (solute mass fraction in gel solution / bulk) ([3]; PEGMDA microgels M 200 g/mol): 6.1 ± 0.9
- Partition coefficient κ (solute mass fraction in gel solution / bulk) ([3]; PEGMDA microgels M 400 g/mol): 11.0 ± 0.4
- Partition coefficient κ (solute mass fraction in gel solution / bulk) ([3]; PEGMDA microgels M 575 g/mol): 11.3 ± 1.6
- Partition coefficient κ (solute mass fraction in gel solution / bulk) ([3]; PEGMDA microgels M 700 g/mol): 11.8 ± 1.1
- improvement of Form R frequency of occurrence by polymer microgels [4]: up to 20 times
- average induction time of R [5]: over 10000 min
SMILES: Cc1cc(C#N)c(Nc2ccccc2[N+](=O)[O-])s1 [ROY, 5-methyl-2-[(2-nitrophenyl)amino]-3-thiophenecarbonitrile]
- relative stability of the three observed polymorphs ([6]; ROY, at the chosen experimental condition): Y>ON>R

- average nucleation induction time τ [7, 13]: 427 ± 13 min
- Polymorph [7, 14]: II & I
- average nucleation induction time τ [7, 14]: 222 ± 5 min
- Polymorph [7, 15]: II & I
- average nucleation induction time τ [7, 15]: 174 ± 11 min
- average nucleation induction time τ ([7]; CBZ, PEGMDA microgels M 400 g/mol): 10.9 ± 0.3 min
- average nucleation induction time τ ([7]; CBZ, PEGMDA microgels M 575 g/mol): 33 ± 1 min
- average nucleation induction time τ ([7]; CBZ, PEGMDA microgels M 700 g/mol): 49 ± 1 min
- Polymorph crystallized ([7]; CBZ, PEGMDA microgels with M≧400 g/mol, ~250 trials): pure Form II
- optimum mesh size for CBZ nucleation ([7]; PEGMDA microgels): 1.1 nm
- Partition coefficient κ (solute mass fraction in gel solution / bulk) ([3]; PEGMDA microgels M 130 g/mol): 3.0 ± 0.4
- Partition coefficient κ (solute mass fraction in gel solution / bulk) ([3]; PEGMDA microgels M 200 g/mol): 2.7 ± 0.1
- Partition coefficient κ (solute mass fraction in gel solution / bulk) ([3]; PEGMDA microgels M 400 g/mol): 3.8 ± 0.2
- Partition coefficient κ (solute mass fraction in gel solution / bulk) ([3]; PEGMDA microgels M 575 g/mol): 3.8 ± 0.04
- Partition coefficient κ (solute mass fraction in gel solution / bulk) ([3]; PEGMDA microgels M 700 g/mol): 3.7 ± 0.1
SMILES: NC(=O)N1c2ccccc2C=Cc2ccccc21 [CBZ, carbamazepine]
- Polymorph [7, 13]: concomitant crystallization of Forms I and II; also recorded: II & I, occasionally
- energy separation between form III and II ([6]; CBZ anhydrous forms, ambient conditions): less than 0.7 kcal/mol
